Each compound was assayed against T1, human full-length recombinant PKC βII (Homo sapiens, UniProt P05771) (assay: Determination of PKC βII inhibition (Caliper mobility-shift kinase assay, Fluorescein-RFARKGSLRQKNV peptide substrate)). Details: example compounds at a final concentration of 1.14 μM (±0.15 μM).
T1 construct: Active human full-length recombinant PKC βII; purchased Invitrogen GmbH, Darmstadt, Germany
Type: biochemical
Procedure, shortened: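 Full-length PKC βII (30 ng/ml in pre-dilution) with PS/DAG/Ca2+ activators, pH 7.4; fluorescein peptide and ATP at 3 μM and 120 μM before mixing. Reaction ran 60 min at 32 °C, was EDTA-stopped, and was read by mobility shift. % inhibition came from product/(substrate+product) peak heights, tested at 1.14 μM final.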

T1 sequence (P05771 1-673 isoform P05771-2): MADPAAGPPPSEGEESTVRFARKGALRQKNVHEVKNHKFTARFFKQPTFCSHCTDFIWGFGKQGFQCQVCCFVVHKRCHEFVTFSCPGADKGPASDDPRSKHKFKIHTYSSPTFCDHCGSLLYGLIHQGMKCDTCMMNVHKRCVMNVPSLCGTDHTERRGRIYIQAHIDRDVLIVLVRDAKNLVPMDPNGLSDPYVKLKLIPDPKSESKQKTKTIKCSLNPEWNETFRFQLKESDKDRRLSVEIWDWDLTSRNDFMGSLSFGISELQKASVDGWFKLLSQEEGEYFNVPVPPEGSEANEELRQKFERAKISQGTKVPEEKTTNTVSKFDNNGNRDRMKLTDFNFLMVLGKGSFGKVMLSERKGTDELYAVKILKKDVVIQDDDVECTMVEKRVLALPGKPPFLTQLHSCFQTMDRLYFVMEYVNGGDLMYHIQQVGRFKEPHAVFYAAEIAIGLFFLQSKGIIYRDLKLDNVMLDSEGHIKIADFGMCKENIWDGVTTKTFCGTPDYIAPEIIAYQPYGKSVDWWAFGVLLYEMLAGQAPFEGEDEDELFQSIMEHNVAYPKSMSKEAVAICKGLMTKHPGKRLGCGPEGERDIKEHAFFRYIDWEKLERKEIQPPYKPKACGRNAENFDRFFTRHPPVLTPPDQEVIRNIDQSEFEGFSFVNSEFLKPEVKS

Row | inhibition at 1.14 µM | SMILES
1 | 97% | Cc1n[nH]c2nc(-c3ccc(O)cc3F)cc(C(=O)N3CCN[C@H]4CCCC[C@@H]43)c12 [Example 443, [6-(2-Fluoro-4-hydroxy-phenyl)-3-methyl-1H-pyrazolo[3,4-b]pyridin-4-yl]-(4aS,8aS)-octahydro-quinoxalin-1-yl-methanone]
2 | 89% | Cc1n[nH]c2nc(-c3ccc(O)cc3)cc(C(=O)N3CCC4(CCCNC4)C3)c12 (stereo not shown) [Example 235, (2,7-Diaza-spiro[4.5]dec-2-yl)-[6-(4-hydroxy-phenyl)-3-methyl-1H-pyrazolo[3,4-b]pyridin-4-yl]-methanone]
3 | 66% | Cc1n[nH]c2nc(-c3ccc(O)cc3)cc(C(=O)NC3CC(C)(C)N(C)C(C)(C)C3)c12 [Example 276, 6-(4-Hydroxy-phenyl)-3-methyl-1H-pyrazolo[3,4-b]pyridine-4-carboxylic acid (1,2,2,6,6-pentamethyl-piperidin-4-yl)-amide]
4 | 29% | Cc1n[nH]c2nc(-c3ccc(O)cc3)cc(C(=O)N3CCC4(CC3)CNCCO4)c12 [Example 259, [6-(4-Hydroxy-phenyl)-3-methyl-1H-pyrazolo[3,4-b]pyridin-4-yl]-(1-oxa-4,9-diaza-spiro[5.5]undec-9-yl)-methanone]
5 | 77% | Cc1n[nH]c2nc(-c3ccc(O)cc3)cc(C(=O)N3CC[C@@H](N(C)C)C3)c12 [Example 238, ((R)-3-Dimethylamino-pyrrolidin-1-yl)-[6-(4-hydroxy-phenyl)-3-methyl-1H-pyrazolo[3,4-b]pyridin-4-yl]-methanone]
6 | 32% | Cc1n[nH]c2nc(-c3ccc(O)c(F)c3)cc(C(=O)N3CCNC4CS(=O)(=O)CC43)c12 (stereo not shown) [Example 296, (6,6-Dioxo-octahydro-6lambda6-thieno[3,4-b]pyrazin-1-yl)-[6-(3-fluoro-4-hydroxy-phenyl)-3-methyl-1H-pyrazolo[3,4-b]pyridin-4-yl]-methanone]
7 | 88% | Cc1n[nH]c2nc(-c3ccc(O)cc3)cc(C(=O)N3CC[C@H](N)C3)c12 [Example 246, ((S)-3-Amino-pyrrolidin-1-yl)-[6-(4-hydroxy-phenyl)-3-methyl-1H-pyrazolo[3,4-b]pyridin-4-yl]-methanone]
8 | 100% | Cc1n[nH]c2nc(-c3ccc(O)cc3)cc(C(=O)N3CCNC(C)C3)c12 (stereo not shown) [Example 221, [6-(4-Hydroxy-phenyl)-3-methyl-1H-pyrazolo[3,4-b]pyridin-4-yl]-(3-methyl-piperazin-1-yl)-methanone]
9 | 34% | Cc1n[nH]c2nc(-c3ccc(O)cc3)cc(C(=O)N3CCC(CN4CCCCC4)CC3)c12 [Example 287, [6-(4-Hydroxy-phenyl)-3-methyl-1H-pyrazolo[3,4-b]pyridin-4-yl]-(4-piperidin-1-ylmethyl-piperidin-1-yl)-methanone]
10 | 73% | Cc1n[nH]c2nc(-c3ccc(O)cc3)cc(C(=O)N3CC4CCCN4CC3c3ccccc3)c12 (stereo not shown) [Example 282, [6-(4-Hydroxy-phenyl)-3-methyl-1H-pyrazolo[3,4-b]pyridin-4-yl]-(3-phenyl-hexahydro-pyrrolo[1,2-a]pyrazin-2-yl)-methanone]
11 | 92% | Cc1n[nH]c2nc(-c3ccc(O)cc3)cc(C(=O)N3CCNC[C@@H]3c3cccc(F)c3)c12 [Example 82, [(S)-2-(3-Fluoro-phenyl)-piperazin-1-yl]-[6-(4-hydroxy-phenyl)-3-methyl-1H-pyrazolo[3,4-b]pyridin-4-yl]-methanone]
12 | 92% | Cc1n[nH]c2nc(-c3ccc(O)c(F)c3)cc(C(=O)N3CCNCC3c3cccnc3)c12 (stereo not shown) [Example 327, [6-(3-Fluoro-4-hydroxy-phenyl)-3-methyl-1H-pyrazolo[3,4-b]pyridin-4-yl]-(2-pyridin-3-yl-piperazin-1-yl)-methanone]
13 | 99% | Cc1n[nH]c2nc(-c3ccc(O)cc3)cc(C(=O)N3CCNCC3c3cccnc3)c12 (stereo not shown) [Example 374, [6-(4-Hydroxy-phenyl)-3-methyl-1H-pyrazolo[3,4-b]pyridin-4-yl]-(2-pyridin-3-yl-piperazin-1-yl)-methanone]
14 | 91% | Cc1n[nH]c2nc(-c3ccc(O)cc3)cc(C(=O)N3CCNCC34CC4)c12 [Example 80, (4,7-Diaza-spiro[2.5]oct-4-yl)-[6-(4-hydroxy-phenyl)-3-methyl-1H-pyrazolo[3,4-b]pyridin-4-yl]-methanone]
15 | 99% | CO[C@H]1CNC[C@@H]1NC(=O)c1cc(-c2ccc(O)cc2)nc2[nH]nc(C)c12 (racemic) [Example 78, 6-(4-Hydroxy-phenyl)-3-methyl-1H-pyrazolo[3,4-b]pyridine-4-carboxylic acid ((trans)-4-methoxy-pyrrolidin-3-yl)-amide]
16 | 96% | Cc1n[nH]c2nc(-c3ccc(O)cc3)cc(C(=O)N3CCNCC3c3c(F)cccc3F)c12 (stereo not shown) [Example 100, [2-(2,6-Difluoro-phenyl)-piperazin-1-yl]-[6-(4-hydroxy-phenyl)-3-methyl-1H-pyrazolo[3,4-b]pyridin-4-yl]-methanone]
17 | 54% | CN[C@H]1CN(C(=O)c2cc(-c3ccc(O)c(F)c3)nc3[nH]nc(C)c23)CC[C@H]1C (racemic) [Example 312, [6-(3-Fluoro-4-hydroxy-phenyl)-3-methyl-1H-pyrazolo[3,4-b]pyridin-4-yl]-(cis-4-methyl-3-methylamino-piperidin-1-yl)-methanone]
18 | 90% | Cc1n[nH]c2nc(-c3ccc(O)cc3)cc(C(=O)N3CCNC(Cc4ccccc4)C3)c12 (stereo not shown) [Example 375, (3-Benzyl-piperazin-1-yl)-[6-(4-hydroxy-phenyl)-3-methyl-1H-pyrazolo[3,4-b]pyridin-4-yl]-methanone]
19 | 62% | Cc1n[nH]c2nc(-c3ccc(O)cc3)cc(C(=O)NCC(C)(CN3CCCC3)c3ccccn3)c12 (stereo not shown) [Example 286, 6-(4-Hydroxy-phenyl)-3-methyl-1H-pyrazolo[3,4-b]pyridine-4-carboxylic acid (2-methyl-2-pyridin-2-yl-3-pyrrolidin-1-yl-propyl)-amide]
20 | 60% | Cc1n[nH]c2nc(-c3ccc(O)cc3)cc(C(=O)N[C@H]3CC[C@H](N)CC3)c12 [Example 77, 6-(4-Hydroxy-phenyl)-3-methyl-1H-pyrazolo[3,4-b]pyridine-4-carboxylic acid (trans-4-amino-cyclohexyl)-amide]
21 | 99% | Cc1n[nH]c2nc(-c3ccc(O)cc3)cc(C(=O)N3CCNCC3c3cccs3)c12 (stereo not shown) [Example 31, [6-(4-Hydroxy-phenyl)-3-methyl-1H-pyrazolo[3,4-b]pyridin-4-yl]-(2-thiophen-2-yl-piperazin-1-yl)-methanone]
22 | 42% | Cc1n[nH]c2nc(-c3ccc(O)cc3)cc(C(=O)NCCC3CCNCC3)c12 [Example 395, 6-(4-Hydroxy-phenyl)-3-methyl-1H-pyrazolo[3,4-b]pyridine-4-carboxylic acid (2-piperidin-4-yl-ethyl)-amide]
23 | 94% | Cc1cc(O)ccc1-c1cc(C(=O)N2CCNCC2c2ccc(C(F)(F)F)cc2)c2c(C)n[nH]c2n1 (stereo not shown) [Example 154, [6-(4-Hydroxy-2-methyl-phenyl)-3-methyl-1H-pyrazolo[3,4-b]pyridin-4-yl]-[2-(4-trifluoromethyl-phenyl)-piperazin-1-yl]-methanone]
24 | 94% | Cc1n[nH]c2nc(-c3ccc(O)cc3)cc(C(=O)N3CC4(CCNCC4)C3)c12 [Example 234, (2,7-Diaza-spiro[3.5]non-2-yl)-[6-(4-hydroxy-phenyl)-3-methyl-1H-pyrazolo[3,4-b]pyridin-4-yl]-methanone]
25 | 53% | Cc1n[nH]c2nc(-c3ccc(O)c(F)c3)cc(C(=O)N3CCC4(CCNC4)CC3)c12 [Example 341, (2,8-Diaza-spiro[4.5]dec-8-yl)-[6-(3-fluoro-4-hydroxy-phenyl)-3-methyl-1H-pyrazolo[3,4-b]pyridin-4-yl]-methanone]
26 | 98% | Cc1n[nH]c2nc(-c3ccc(O)cc3)cc(C(=O)N3CCNCC3c3ccc4c(c3)OCO4)c12 (stereo not shown) [Example 32, (2-Benzo[1,3]dioxol-5-yl-piperazin-yl)-[6-(4-hydroxy-phenyl)-3-methyl-1H-pyrazolo[3,4-b]pyridin-4-yl]-methanone]
27 | 80% | COC(=O)[C@H]1CNCCN1C(=O)c1cc(-c2ccc(O)c(F)c2)nc2[nH]nc(C)c12 [Example 328, (R)-1-[6-(3-Fluoro-4-hydroxy-phenyl)-3-methyl-1H-pyrazolo[3,4-b]pyridine-4-carbonyl]-piperazine-2-carboxylic acid methyl ester]
28 | 92% | Cc1n[nH]c2nc(-c3ccc(O)cc3)cc(C(=O)NC34CNCC3C4)c12 (stereo in doubt) [Example 205, 6-(4-Hydroxy-phenyl)-3-methyl-1H-pyrazolo[3,4-b]pyridine-4-carboxylic acid [(R)-3-azabicyclo[3.1.0]hexan-1-yl]-amide]

Row | SMILES | inhibition at 1.14 µM
29 | CCc1n[nH]c2nc(-c3ccc(O)cc3)cc(C(=O)NC3CC4CCC(C3)N4C)c12 (stereo not shown) [Example 163, 3-Ethyl-6-(4-hydroxy-phenyl)-1H-pyrazolo[3,4-b]pyridine-4-carboxylic acid (8-methyl-8-aza-bicyclo[3.2.1]oct-3-yl)-amide] | 57%
30 | O=C(N[C@H]1CN2CCC1CC2)c1cc(-c2ccc(O)cc2)nc2[nH]nc(C(F)(F)F)c12 [Example 413, 6-(4-Hydroxy-phenyl)-3-trifluoromethyl-1H-pyrazolo[3,4-b]pyridine-4-carboxylic acid [(R)-1-aza-bicyclo[2.2.2]oct-3-yl]-amide] | 29%
31 | CCc1n[nH]c2nc(-c3ccc(O)cc3)cc(C(=O)N[C@@H]3CN4CCC3CC4)c12 [Example 162, (S)-3-Ethyl-6-(4-hydroxy-phenyl)-1H-pyrazolo[3,4-b]pyridine-4-carboxylic acid (1-aza-bicyclo[2.2.2]oct-3-yl)-amide] | 51%
